Read-outs that look alike come from different tables or passages of the source.
How the values were obtained:
Type in all cases: cell-based
[1] = test system: TNF-α; experiment: Screening in LPS stimulated THP-1 cells: TNF-α; details: Homo sapiens, 24 h, ELISA
Description: (§1) IL-6 (BD Biosciences, USA) production by LPS (Escherchia coli 0127:B8, Sigma, USA) in THP-1 cells (ATCC number: TIB202) was designed as in reference, Journal of Immunology, 151, 5631-5638, (1993), the disclosure of which is incorporated by reference for the teaching of the assay.
(§2) THP-1 cells were cultured in RPMI 1640 culture medium (Gibco BRL, UK) containing 100 U/mL penicillin and […] streptomycin, (100× solution, Sigma, USA) containing 10% FBS (JRH Biosciences, USA). 25,000 cells were seeded per well in 96-well plate (Nunc, USA). The cells were differentiated with PMA (Sigma, USA, prepared as 100 μg/mL stock in RPMI and was diluted to 5 ng/mL). The test compound (prepared as 20 mM stock in DMSO and diluted with DMSO to achieve the following final concentrations in the assay: 100, 10, 1, 0.1, 0.01, 0.001 and 0.0001 μM) or vehicle (0.5% DMSO) were added to the cells and the cells were incubated for 30 min at 37° C. LPS (Sigma, USA, prepared as 1 mg/mL stock in PBS) was added to achieve a final concentration of 1 μg/mL. Plates were incubated at 37° C. for 24 h at 5% CO2. Supernatants were harvested, and assayed for TNF-α and IL-6 by ELISA as described by the manufacturer (BD Biosciences, USA). Percent inhibition of cytokine release compared to the control was calculated. The IC50 values were calculated by a nonlinear regression method.

[2] = test system: IL-6; experiment: Screening in LPS stimulated THP-1 cells: IL-6; details: Homo sapiens, 24 h, ELISA
Description: as §1, §2

[3] = test system: TNF-α; experiment: Human monocyte assay (LPS-induced): TNF-α; details: LPS stimulated human monocytes, 5 h
Source text: (§3) The assay was designed as in reference, Physiological Research, 52, 593-598, (2003), the disclosure of which is incorporated by reference for the teaching of the assay.
(§4) The objective of the assay is to determine whether compounds of the present invention—mediated inhibition of LPS-induced cytokines from monocytic THP-1 cell line translates to physiologically relevant human cells. Accordingly, the effect of compounds of the present invention on LPS—induced cytokine production from freshly isolated human monocytes was ascertained.
Peripheral blood was collected from healthy donors into potassium EDTA vacutainer tubes (BD Biosciences, USA). hPBMCs were isolated using density gradient separation (Histopaque-1077; Sigma, USA) and suspended in assay medium which is RPMI culture medium (Sigma, USA) containing 10% heat inactivated FBS (JRH Biosciences, Australia), 100 U/mL penicillin (Sigma, USA) and […] streptomycin (Sigma, USA). Monocytes in the hPBMCs were counted using a Coulter Counter following which the cells were resuspended at 2×10^5 monocytes/mL of assay medium. A cell suspension containing 2×10^4 monocytes was aliquoted per well of a 96-well plate (Nunc, USA). Subsequently, the hPBMCs were incubated for 4-5 h at 37° C., 5% CO2. […] The IC50 values were calculated by a nonlinear regression method using Graph Pad software (Prism 3.03).

[4] = test system: IL-6; experiment: Human monocyte assay (LPS-induced): IL-6; details: LPS stimulated human monocytes, 5 h
Source text: as §3, §4
Peripheral blood was collected from healthy donors into potassium EDTA vacutainer tubes (BD Biosciences, USA). hPBMCs were isolated using density gradient separation (Histopaque-1077; Sigma, USA) and suspended in assay medium which is RPMI culture medium (Sigma, USA) containing 10% heat inactivated FBS (JRH Biosciences, Australia), 100 U/mL penicillin (Sigma, USA) and […] streptomycin (Sigma, USA). Monocytes in the hPBMCs were counted using a Coulter Counter following which the cells were resuspended at 2×10^5 monocytes/mL of assay medium. A cell suspension containing 2×10^4 monocytes was aliquoted per well of a 96-well plate (Nunc, USA). Subsequently, the hPBMCs were incubated for 4-5 h at 37° C., 5% CO2. During the incubation, the monocytes adhered to the bottom of 96-well plate. Following the incubation, the non-adherent lymphocytes were washed and assay medium was added to adherent monocytes. After 48 h of incubation at 37° C., 5% CO2, monocytes were pre-treated with various concentrations of test compound (prepared as 20 mM stock in DMSO; 1 μL of […] concentrated solution of test compound was dissolved in 200 μL cell suspension to achieve a final concentration of 0.03, 0.1, 0.3, 1, 3, 10, 30 and 100 μM) or vehicle (0.5% DMSO) or 10 μM dexamethasone (standard IL-6 and TNF-α inhibitor, Sigma, USA) for 30 min at 37° C., 5% CO2 and stimulated with 1 μg/mL LPS (Escherchia coli 0111:B4, Sigma, USA). The cells were then incubated for 5 h at 37° C., 5% CO2 following which supernatants were collected, stored at −70° C. and were assayed later for IL-6, and TNF-α by ELISA (OptiEIA ELISA sets, BD Biosciences, USA). The IC50 values were calculated by a nonlinear regression method using Graph Pad software (Prism 3.03).

[5] = test system: hPBMCs; experiment: Lymphocyte proliferation assay (T-cell proliferation of normal hPBMCs); details: Homo sapiens, tritiated thymidine
Source text: The assay method was designed as in references, The Journal of Immunology, 153, 1-9, (1994), and Clinical and Diagnostic Laboratory Immunology, 7, 687-692, (2000), the disclosure of which is incorporated by reference for the teaching of the assay.
hPBMCs were obtained from healthy donors by centrifugation of heparinized venous blood over Ficoll/Hypaque solution (Histopaque-1077, Sigma, USA). Isolated hPBMCs were suspended in RPMI 1640 culture medium supplemented with 10% FBS and seeded at a density of 50,000 cells/well in a 96-well plate (Nunc, USA). The cells were incubated at 37° C., 5% CO2 for a period of 24 h. These cells were used for the lymphocyte proliferation as well as cytokine release assay.
The plated cells were treated with different concentrations of the test compound (prepared as 20 mM stock in DMSO and diluted with DMSO to achieve the following final concentrations in the assay: 100, 10, 1, 0.1, 0.01, 0.001 and 0.0001 μM) and were incubated for 30 min. The cells were then stimulated with 5 ng/mL PMA (Sigma, USA, prepared as 100 μg/mL stock in RPMI and was diluted to 5 ng/mL) and 5 μg/mL PHA (Sigma, USA, prepared as a 1 mg/mL stock in RPMI). The plates were incubated at 37° C., 5% CO2 for 48 h. The cells were treated overnight with 0.1 μCi of tritiated thymidine per well (obtained from BARC, India; prepared as stock of 1 mCi/mL) and was diluted in KRPH buffer to 10 μCi/mL and […] and was added per well to obtain a final concentration 0.1 μCi/well) and at the end of 48 h, the anti-proliferative effect of the compound was measured using the following formula: […]
Controls consisted of hPBMCs with PHA and PMA (Stimulated), hPBMCs with RPMI (Un-stimulated), hPBMCs with FK506 (positive control, Sigma, USA, prepared as 20 mM stock in DMSO and diluted with DMSO to achieve the following final concentrations in the assay: 100, 10, 1, 0.1, 0.01, 0.001 and 0.0001 μM).

SMILES | IC50 [1] [nM] | IC50 [2] [nM] | IC50 [3] [nM] | IC50 [4] [nM] | IC50 ([5]; hPBMCs stimulated with PMA and PHA, read-out: Stimulated hPBMC's IC50 (inhibition of cell proliferation)) [nM] | IC50 ([5]; unstimulated hPBMCs, read-out: Unstimulated hPBMC's IC50 (inhibition of cell proliferation)) [nM]
C/C=C/C(O)C(C)/C=C/C(=O)C(C)C(O)C(C)C1OC(=O)/C(OC)=C/C(C)=C/C(C)C(O)C(CC)C(O)C(C)C/C(C)=C/C=C/C1OC (stereo not drawn) [Compound of example 6, (3Z,5E,13E,15E)-18-((6E,10E)-3,9-Dihydroxy-4,8-dimethyl-5-oxododeca-6,10-dien-2-yl)-9-ethyl-8,10-dihydroxy-3,17-dimethoxy-5,7,11,13-tetramethyloxacyclooctadeca-3,5,13,15-tetraen-2-one] | > 100000 | 100 | 5000 | 600 | – | –
C=CC[C@@H]1/C=C(\C)C[C@H](C)C[C@H](OC)[C@H]2O[C@@](O)(C(=O)C(=O)N3CCCC[C@H]3C(=O)O[C@H](/C(C)=C/[C@@H]3CC[C@@H](O)[C@H](OC)C3)[C@H](C)[C@@H](O)CC1=O)[C@H](C)C[C@@H]2OC [FK506, reference compound] | – | – | – | – | < 1 | 2000

From patent US20120225889A1, “USE OF MACROCYCLIC LACTONE DERIVATIVES FOR THE TREATMENT OF INFLAMMATORY DISORDERS” (PIRAMAL LIFE SCIENCES LIMITED, priority 2010, published 2012)
